Data: patent US8586588B2, “Aryl pyridazinone derivatives and their use as H3 receptor ligands” (Cephalon, Inc., priority 2006, dated 2013)
Where a name gives a salt, the structure may show the parent alone.

target: T1, rat histamine H3 receptor (Rattus norvegicus, UniProt Q9QYN8); assay: Rat H3 radioligand binding ([3H]-N-alpha-methylhistamine, CHO-A3 cell membranes, SPA); conditions: Table A, binding constant as letter class; read-out: Rat H3 Ki
T1 construct: encoding the entire 445-amino-acid rat histamine H3 receptor; expressed in transfected cells
How it was run: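 Scintillation proximity displacement of about 1 nM [3H]-N-alpha-methylhistamine, test compound 0.01 nM-30 μM, 4 h, room temperature, in the dark. Receptor source: rat H3 stably transfected into CHO-A3 cells, 10 μg membrane protein, Tris-HCl pH 7.4/MgCl2/BSA buffer. Nonspecific binding defined by 10 μM clobenpropit.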

T1 sequence (Q9QYN8 whole entry): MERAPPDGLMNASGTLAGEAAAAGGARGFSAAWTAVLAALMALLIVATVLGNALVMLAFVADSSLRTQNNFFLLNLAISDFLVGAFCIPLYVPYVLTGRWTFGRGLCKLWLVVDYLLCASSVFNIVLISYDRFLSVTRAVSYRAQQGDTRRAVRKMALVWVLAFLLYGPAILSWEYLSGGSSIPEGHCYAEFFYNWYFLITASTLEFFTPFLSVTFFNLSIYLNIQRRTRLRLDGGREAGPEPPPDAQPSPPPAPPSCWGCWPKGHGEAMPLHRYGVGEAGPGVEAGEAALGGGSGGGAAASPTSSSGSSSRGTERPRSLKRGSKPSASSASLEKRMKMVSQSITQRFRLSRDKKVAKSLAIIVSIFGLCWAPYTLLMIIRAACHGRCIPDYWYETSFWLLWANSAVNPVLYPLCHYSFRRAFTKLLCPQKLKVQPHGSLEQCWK

Question: Which Ki does the source give for `CC(C)n1nc(-c2ccc(OCCCN3CCC(N4CCCC4)CC3)cc2)c2sccc2c1=O` [Example 30, 5-Isopropyl-7-{4-[3-(4-pyrrolidin-1-yl-piperidin-1-yl)-propoxy]-phenyl}-5H-thieno[2,3-d]pyridazin-4-one] here?
Answer: 0.501 to 1 µM

same assay, conditions: Table B, binding constant as letter class; read-out: rat H3 Ki

Question: With `C[C@@H]1CCCN1CCCOc1cccc(-c2nn(C)c(=O)c3c2CCC3)c1` [Example 125, 2-Methyl-4-{3-[3-((R)-2-methyl-pyrrolidin-1-yl)-propoxy]-phenyl}-2,5,6,7-tetrahydro-cyclopenta[d]pyridazin-1-one] as the molecule, how does the Ki read?
Answer: 0.501 to 1 µM

target: T2, human H3 receptor (Homo sapiens, UniProt Q9Y5N1); assay: Human H3 radioligand binding ([3H]-N-alpha-methylhistamine, CHO cell membranes, SPA); conditions: Table A, binding constant as letter class
T2 construct: expressed in transfected cells
How it was run: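 Scintillation proximity format: bead-proximal [3H]-N-alpha-methylhistamine (approximately 1 nM final) bound to human H3 receptor in CHO membranes was counted after 4 h at room temperature, light-protected. Buffer was pH 7.4 Tris/MgCl2/BSA; test compounds spanned 0.01 nM-30 μM; 10 μM clobenpropit set non-specific binding.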

T2 sequence (Q9Y5N1 whole entry): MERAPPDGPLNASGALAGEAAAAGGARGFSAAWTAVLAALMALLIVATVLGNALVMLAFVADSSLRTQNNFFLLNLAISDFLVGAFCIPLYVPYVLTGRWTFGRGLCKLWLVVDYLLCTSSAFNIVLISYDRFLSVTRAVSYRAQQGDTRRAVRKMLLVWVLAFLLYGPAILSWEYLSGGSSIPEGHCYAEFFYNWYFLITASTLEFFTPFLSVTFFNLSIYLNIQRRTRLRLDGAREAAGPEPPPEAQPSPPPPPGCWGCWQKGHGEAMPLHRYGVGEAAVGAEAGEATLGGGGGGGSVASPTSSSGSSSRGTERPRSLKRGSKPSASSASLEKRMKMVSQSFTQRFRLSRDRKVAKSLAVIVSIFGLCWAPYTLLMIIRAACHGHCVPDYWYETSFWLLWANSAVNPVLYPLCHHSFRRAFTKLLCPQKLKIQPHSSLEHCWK

Question: With `CC(C)n1nc(-c2ccc(OCCCN3CCC(N4CCCC4)CC3)cc2)c2sccc2c1=O` [Example 30, 5-Isopropyl-7-{4-[3-(4-pyrrolidin-1-yl-piperidin-1-yl)-propoxy]-phenyl}-5H-thieno[2,3-d]pyridazin-4-one] as the molecule, how does the Ki read?
Answer: 0.0001 to 0.1 µM

same assay, conditions: Table B, binding constant as letter class

Question: For `C[C@@H]1CCCN1CCCOc1cccc(-c2nn(C)c(=O)c3c2CCC3)c1` [Example 125, 2-Methyl-4-{3-[3-((R)-2-methyl-pyrrolidin-1-yl)-propoxy]-phenyl}-2,5,6,7-tetrahydro-cyclopenta[d]pyridazin-1-one], which Ki is on record?
Answer: 0.101 to 0.5 µM

test system: not given; assay: not given; conditions: not given

Question: Which melting point does the source give for `C[C@@H](COc1ccc(-c2ccc(=O)n(C)n2)cc1)CN1CCC[C@H]1C` (as salt: HCl) [Example 82, 2-Methyl-6-{4-[(R)-2-methyl-3-((R)-2-methyl-pyrrolidin-1-yl)-propoxy]-phenyl}-2H-pyridazin-3-one] here?
Answer: 76 to 78 °C

Question: With `Cn1nc(-c2ccc(OCC3CCN(C4CCCC4)CC3)cc2)ccc1=O` (as salt: HCl) [Example 70, 6-[4-(1-Cyclopentyl-piperidin-4-ylmethoxy)-phenyl]-2-methyl-2H-pyridazin-3-one] as the molecule, how does the melting point read?
Answer: 250 to 251 °C

Question: With `C[C@@H]1CCCN1CCCOc1ccc(-c2nn(Cc3ccc(Cl)cc3)c(=O)c3ccccc23)cc1` (as salt: HCl) [Example 54, 2-(4-Chloro-benzyl)-4-{4-[3-((R)-2-methyl-pyrrolidin-1-yl)-propoxy]-phenyl}-2H-phthalazin-1-one] as the molecule, how does the melting point read?
Answer: 217 to 218 °C

Question: With `Cn1nc(-c2ccc(OCC3CCNCC3)cc2)ccc1=O` (as salt: HCl) [Example 66, 2-Methyl-6-[4-(piperidin-4-ylmethoxy)-phenyl]-2H-pyridazin-3-one] as the molecule, how does the melting point read?
Answer: 249 to 251 °C

Question: For `O=c1cc(-c2ccc(OC3CCN(C4CCC4)CC3)nc2)cn[nH]1` (as salt: hydrochloride) [Example 117, 5-[6-(1-Cyclobutyl-piperidin-4-yloxy)-pyridin-3-yl]-2H-pyridazin-3-one], which melting point is on record?
Answer: 232 to 234 °C

Question: With `Cn1nc(-c2ccc(OCC3CCN(C4CCC4)CC3)cc2)ccc1=O` (as salt: HCl) [Example 67, 6-[4-(1-Cyclobutyl-piperidin-4-ylmethoxy)-phenyl]-2-methyl-2H-pyridazin-3-one] as the molecule, how does the melting point read?
Answer: 250 to 252 °C

Question: Which melting point does the source give for `Cc1cc(OCCCN2CCC[C@H]2C)ccc1C1=NNC(=O)CC1` (as salt: HCl) [Example 199, 6-{(R)-2-Methyl-4-[3-(2-methyl-pyrrolidin-1-yl)-propoxy]-phenyl}-4,5-dihydro-2H-pyridazin-3-one] here?
Answer: 121 to 123 °C

Question: With `CN1CCC(COc2ccc(-c3ccc(=O)n(C)n3)cc2)CC1` (as salt: HCl) [Example 71, 2-Methyl-6-[4-(1-methyl-piperidin-4-ylmethoxy)-phenyl]-2H-pyridazin-3-one] as the molecule, how does the melting point read?
Answer: 257 to 258 °C

Question: For `CCN(CC)CCCOc1ccc(-c2nn(C(C)C)c(=O)c3ccsc23)cc1` (as salt: HCl) [Example 28, 7-[4-(3-Diethylamino-propoxy)-phenyl]-5-isopropyl-5H-thieno[2,3-d]pyridazin-4-one], which melting point is on record?
Answer: 188 to 190 °C

Question: Which melting point does the source give for `O=C1NN=C(c2ccc(OC3CCN(C4CCC4)CC3)cc2)C2CCC12` (stereo not drawn) (as salt: HCl) [Example 172, 5-[4-(1-Cyclobutyl-piperidin-4-yloxy)-phenyl]-3,4-diaza-bicyclo[4.2.0]oct-4-en-2-one] here?
Answer: 285 to 288 °C

Question: Which melting point does the source give for `C[C@@H]1CCCN1CCCOc1ccc(-c2ccc(=O)n(-c3ccccc3)n2)cc1` (as salt: HCl) [Example 20, 6-{4-[3-((R)-2-Methyl-pyrrolidin-1-yl)-propoxy]-phenyl}-2-phenyl-2H-pyridazin-3-one] here?
Answer: 82 to 86 °C

Question: Which melting point does the source give for `CC(C)n1nc(-c2ccc(OCCCN3CCCCC3)cc2)c2sccc2c1=O` (as salt: HCl) [Example 24, 5-Isopropyl-7-[4-(3-piperidin-1-yl-propoxy)-phenyl]-5H-thieno[2,3-d]pyridazin-4-one] here?
Answer: 195 to 196 °C

Question: Which melting point does the source give for `Cc1ccc(=O)n(-c2ccc(OCCCN3CCC[C@H]3C)cc2)n1` (as salt: fumarate) [Example 201, 6-Methyl-2-{4-[3-((R)-2-methyl-pyrrolidin-1-yl)-propoxy]-phenyl}-2H-pyridazin-3-one] here?
Answer: 168 to 170 °C

Question: Which melting point does the source give for `C[C@@H]1CCCN1CCCOc1cccc(-c2nn(C)c(=O)c3c2CCC3)c1` (as salt: HCl) [Example 125, 2-Methyl-4-{3-[3-((R)-2-methyl-pyrrolidin-1-yl)-propoxy]-phenyl}-2,5,6,7-tetrahydro-cyclopenta[d]pyridazin-1-one] here?
Answer: 172 to 174 °C

Question: Which melting point does the source give for `Cn1nc(-c2cccc(OCCCN3CCC[C@H]3CO)c2)c2c(c1=O)CCC2` (as salt: HCl) [Example 127, 4-{3-[3-((S)-2-Hydroxymethyl-pyrrolidin-1-yl)-propoxy]-phenyl}-2-methyl-2,5,6,7-tetrahydro-cyclopenta[d]pyridazin-1-one] here?
Answer: 193 to 194 °C

Question: Which melting point does the source give for `C[C@@H]1CCCN1CCCOc1ccc(-c2ccc(=O)n(C)n2)cc1` (as salt: HCl) [Example 1, 2-Methyl-6-{4-[3-((R)-2-methyl-pyrrolidin-1-yl)-propoxy]-phenyl}-2H-pyridazin-3-one] here?
Answer: 183 to 185 °C

Question: Which melting point does the source give for `CC(C)N1CCC(Oc2ccc(-c3ccc(=O)n(C)n3)cc2)CC1` (as salt: HCl) [Example 72] here?
Answer: 108 to 110 °C

Question: Which melting point does the source give for `Cc1nn(-c2ccccn2)c(=O)cc1-c1ccc(OCCCN2CCC[C@H]2C)cc1` (as salt: hydrochloride) [Example 100, 6-Methyl-5-{4-[3-((R)-2-methyl-pyrrolidin-1-yl)-propoxy]-phenyl}-2-pyridin-2-yl-2H-pyridazin-3-one] here?
Answer: 155 to 157 °C

Question: Which melting point does the source give for `O=c1ccc(-c2ccc(OCCCN3CCCCC3)c(F)c2)nn1-c1ccccc1` (as salt: HCl) [Example 10, 6-[3-Fluoro-4-(3-piperidin-1-yl-propoxy)-phenyl]-2-phenyl-2H-pyridazin-3-one] here?
Answer: 230 to 232 °C

Question: With `CC(C)N1CCC(COc2ccc(-c3ccc(=O)n(C)n3)cc2)CC1` (as salt: HCl) [Example 68, 6-[4-(1-Isopropyl-piperidin-4-ylmethoxy)-phenyl]-2-methyl-2H-pyridazin-3-one] as the molecule, how does the melting point read?
Answer: 187 to 189 °C

Question: Which melting point does the source give for `C[C@@H]1CCCN1CCCOc1ccc(C2=NN(c3ccccn3)C(=O)CC2)cc1` (as salt: HCl) [Example 183, 6-{4-[3-((R)-2-Methyl-pyrrolidin-1-yl)-propoxy]-phenyl}-2-pyridin-2-yl-4,5-dihydro-2H-pyridazin-3-one] here?
Answer: 203 to 205 °C

Question: With `Cn1nc(-c2ccc(OCCN3CCCCC3)cc2)c2ccccc2c1=O` (as salt: HCl) [Example 51, 2-Methyl-4-[4-(2-piperidin-1-yl-ethoxy)-phenyl]-2H-phthalazin-1-one] as the molecule, how does the melting point read?
Answer: 253 to 254 °C

Question: With `Cn1nc(-c2ccc(OCC3CCN(C4CCC4)CC3)cc2)c2ccccc2c1=O` (as salt: HCl) [Example 64, 4-[4-(1-Cyclobutyl-piperidin-4-ylmethoxy)-phenyl]-2-methyl-2H-phthalazin-1-one] as the molecule, how does the melting point read?
Answer: 256 to 257 °C

Question: For `C[C@@H]1CCCN1CCCOc1ccc(-c2nn(C)c(=O)cc2-c2ccccc2)cc1` (as salt: HCl) [Example 47, 2-Methyl-6-{4-[3-((R)-2-methyl-pyrrolidin-1-yl)-propoxy]-phenyl}-5-phenyl-2H-pyridazin-3-one], which melting point is on record?
Answer: 207 to 209 °C

Question: Which melting point does the source give for `Cc1n[nH]c(=O)cc1-c1ccc(OC2CCN(C3CCC3)CC2)cc1` (as salt: HCl) [Example 103, 5-[4-(1-Cyclobutyl-piperidin-4-yloxy)-phenyl]-6-methyl-2H-pyridazin-3-one] here?
Answer: 296 to 297 °C

Question: Which melting point does the source give for `Cc1n[nH]c(=O)cc1-c1ccc(OCCCN2CCCCCC2)cc1` (as salt: hydrochloride) [Example 90, 5-[4-(3-Azepan-1-yl-propoxy)-phenyl]-6-methyl-2H-pyridazin-3-one] here?
Answer: 204 to 206 °C

Question: Which melting point does the source give for `Cn1nc(-c2ccc(OCCCN3CCCCCC3)cc2)c2ccccc2c1=O` (as salt: HCl) [Example 53, 4-[4-(3-Azepan-1-yl-propoxy)-phenyl]-2-methyl-2H-phthalazin-1-one] here?
Answer: 238 to 240 °C

Question: Which melting point does the source give for `C[C@@H]1CCCN1CCCOc1ccc2cnn(C)c(=O)c2c1` (as salt: hydrochloride) [Example 79, 2-Methyl-7-[3-((R)-2-methyl-pyrrolidin-1-yl)-propoxy]-2H-phthalazin-1-one] here?
Answer: 252 to 253 °C

Question: With `CCN1N=C(c2ccc(OC3CCN(C4CCC4)CC3)cc2)C2CC2C1=O` (stereo not drawn) (as salt: HCl) [Example 250, 5-[4-(1-Cyclobutyl-piperidin-4-yloxy)-phenyl]-3-ethyl-3,4-diaza-bicyclo[4.1.0]hept-4-en-2-one] as the molecule, how does the melting point read?
Answer: 246 to 248 °C

Question: For `COc1cn[nH]c(=O)c1-c1ccc(OCCCN2CCC[C@H]2C)cc1` (as salt: hydrochloride) [Example 237, 5-Methoxy-4-{4-[3-((R)-2-methyl-pyrrolidin-1-yl)-propoxy]-phenyl}-2H-pyridazin-3-one], which melting point is on record?
Answer: 135 to 140 °C

Question: Which melting point does the source give for `O=c1ccc(-c2ccc(OCCCN3CCCCC3)c(F)c2)n[nH]1` (as salt: HCl) [Example 120, 6-[3-Fluoro-4-(3-piperidin-1-yl-propoxy)-phenyl]-2H-pyridazin-3-one] here?
Answer: 240 to 242 °C

Question: Which melting point does the source give for `Cn1ncc(-c2ccc(OCCCN3CCCCCC3)cc2)cc1=O` (as salt: hydrochloride) [Example 93, 5-[4-(3-Azepan-1-yl-propoxy)-phenyl]-2-methyl-2H-pyridazin-3-one] here?
Answer: 247 to 248 °C
